Marks after values point to notes of the source that are not given here.
Legend:
[1] = Storage stability of CLF in human plasma at −70° C. over 4 weeks (Test 4), HPLC-MS/MS; type: in vitro ADME; conditions: for CLF remaining / CLF concentration: (D) storage in plasma at −70° C. per title (section head prints 37° C.); for CLF remaining: vs To; for CLF concentration: 100 ng/ml, mean ± SEM (n = 2)
Description: A working solution of CLF was prepared at 10 μg/ml by diluting the compound in methanol (100%).
At To and 4 weeks, 72 hours and 24 hours before To, 4 μl of the working solution of CLF were added to 400 μl of human plasma. The final concentration of CLF was of 100 ng/ml. Samples were divided in 2 equal fractions of 200 μl and stored at −70° C. until further analysis.
An internal standard (IS), 5-([4,6-Dichlorotriazin-2-yl]amino)fluorescein hydrochloride, was added to each plasma sample (calibrators, QC, zero and test samples) in order to monitor the extraction. Thus, a stock solution of IS at 100 μg/ml in acetonitrile was 50-fold diluted in acetonitrile in order to obtain a final concentration of 2 μg/ml. Then, 200 μl of this solution were added to each plasma sample in order to precipitate the proteins. Samples were vortexed/mixed and centrifuged 5 min at 20,000 g (4° C.). After centrifugation, the clear supernatant (around 250 μl) was transferred into 1.2 ml HPLC glass vials and sealed. Samples were placed into the refrigerated autosampler and 20 μl were injected into the HPLC-MS/MS system. Test samples were injected twice.
HPLC separation was operated with a mixture of water and acetonitrile containing 0.1% of formic acid and the reversed phase mode was selected. The injected volume of sample was 20 μl and the “full loop” mode was applied. The temperature of the analytical column was kept at 30° C.
CLF and its IS were separated on an Acclaim 120 C18 column (5 μm, 2.1×100 mm, Dionex) by elution with a linear gradient of acetonitrile in water as described in Table 6.
An ion trap mass spectrometer equipped with an ESI interface was operated in the positive ionization mode. For each compound, the most abundant ion formed in MS was selected for MS/MS fragmentations. In order to increase the sensitivity and the specificity of the method, the MRM mode was selected. The most specific daughter ions formed in MS/MS were used for quantification.

[2] = Stability of CLF-spiked serum pools stored 48 hrs at −20° C., 4° C. and 37° C., CLF ELISA; type: in vitro ADME, human; conditions: for % difference (4° C. from −20° C.) / % difference (37° C. from −20° C.) / observed 4° C. / observed 37° C. / observed −20° C.: serum pool; for observed 4° C.: 48 hrs at 4° C.; for observed 37° C.: 48 hrs at 37° C.; for observed −20° C.: 48 hrs at −20° C.
Description: These conditions were used for all assays described in Phase 2a (above) and Phase 2b (below). See Appendix B and C for buffer and conjugate formulations respectively: • Add 25 μl/well of sample or standard (0-1000 ng/ml CLF in Buffer #24) to the wells of a streptavidin-coated microtitre plate (NovAssay, F2SAC). • Add 100 μl/well of fluorescein-biotin (Sigma B9431) at 20 ng/ml in Buffer #24+0.2% w/v ANS (Sigma 10417). • Add 100 μl/well of anti-fluorescein HRP (NovAssay, DV047/17-3) at 100 ng/ml in Buffer #24. • Incubate the plate for 30 minutes at room temperature. • Wash the plate 3 times with 800 μl/well Buffer #29 and tap the plate dry. • Add 100 μl/well of SureBlue Reserve TMB Substrate (KPL) and incubate the plate for 10 minutes at room temperature. • Stop the substrate reaction by adding 100 μl/well of 1M HCl and read the absorbance at 450 nm wavelength (ThermoFisher Scientific, Multiskan FC).
The stability study (−20° C., 4° C. and 37° C.) involved preparation of 3 serum pools spiked with 31.25 ng/ml, 125 ng/ml and 250 ng/ml CLF (aliquots of which were then stored at the 3 temperatures). Storage time was 48 hrs.

[3] = Solubility and stability of CLF in working solutions by HPLC-UV-MS (254 nm); type: physicochemical; conditions: [CLF] = 50 μg/ml
Description: HPLC separation was operated with a mixture of water and acetonitrile containing 0.1% of formic acid and the reversed phase mode was selected. The injected volume of sample was 20 μl and the “full loop” mode was applied. The temperature of the analytical column was kept at 30° C. CLF, its metabolites and its IS were separated on a SunFire C18 column (5 μm, 2.1×100 mm, Waters) by elution with a linear gradient of acetonitrile in water as described in Table 62.
The wavelength of UV detector was scaled at 254 nm. An ion trap mass spectrometer equipped with electrospray ionization (ESI) interface was operated in positive ionization mode. Detection was carried out in the following modes: • MS mode (full scan) in positive ESI for analysis of working and treatment solutions and metabolites identification, • MS/MS mode (MRM, multiple reaction monitoring) in positive ESI for qualitative analysis of CLF, its IS and its metabolites. Briefly, specific parent ions formed for CLF, its IS and its identified metabolites were selected for MS/MS fragmentations.
Two working solutions of CLF were prepared. The first was prepared in 100% methanol for a final concentration of CLF at 109.6 μg/ml (SS CLF-MetOH) and the second was prepared in aqueous ethanol (water/ethanol/sodium hydroxide (50%), at 1000/500/30, v/v/v) for a final concentration of CLF at 71.6 μg/ml (SS CLF-EtOH).
Working solution used during this study were centrifuged 5 min at 3000 g and then diluted in a methanol/water mixture (50/50, v/v) in order to obtain three homogeneous solutions at 50 μg/ml. Then, 200 μl were transferred into 1.2 ml HPLC glass vials and sealed. Samples were placed into the refrigerated auto-sampler and 20 μl were injected into the HPLC-UV-MS system.
A blank sample was included (methanol/water, 50/50, v/v) to clearly distinguish interferences and impurities. The UV detection (scaled at 254 nm) allowed evaluating the solubility of CLF in both solvents by comparing CLF chromatographic peak areas. In case of signs of instability (additional chromatographic peaks), MS and then MS/MS (if needed) detections allowed to identify the impurities formed.

CC(CCC(=O)NC(CCCCNC(=S)Nc1ccc(-c2c3ccc(=O)cc-3oc3cc(O)ccc23)c(C(=O)O)c1)C(=O)O)C1CCC2C3C(O)CC4CC(O)CCC4(C)C3CC(O)C12C [CLF, Cholyl-L-Lysyl-Fluorescein]
CLF remaining ([1]; 0.0 days): 100.0% | CLF concentration ([1]; 0.0 days): 101.2 ± 5.8 ng/mL | CLF concentration ([1]; 1.0 days): 105.5 ± 2.5 ng/mL | CLF concentration ([1]; 3.0 days): 104.7 ± 6.9 ng/mL | CLF concentration ([1]; 28.0 days): 96.2 ± 1.4 ng/mL | CLF remaining ([1]; 1.0 days): 104.3% | CLF remaining ([1]; 3.0 days): 103.5% | CLF remaining ([1]; 28.0 days (4 weeks)): 95.0% | plasmatic concentrations measured ([1]; plasma spiked with 100 ng/ml, stored at −70° C., 0-4 weeks): 96.2 to 105.5 ng/mL | CLF stability in plasma on storage ([1]; up to 4 weeks at −70° C.): stable | time over which CLF stability in human plasma was confirmed ([1]; −70° C.): at least 4 weeks | time spiked samples can be stored ([2]; at 4 C., should avoid higher temperatures e.g. 37 C.): 48 hrs at 4 C. but should avoid higher | % difference (4° C. from −20° C.) ([2]; expected 31.25 ng/ml, 48 hrs): −8% | % difference (37° C. from −20° C.) ([2]; expected 31.25 ng/ml, 48 hrs): −45% | observed 4° C. ([2]; expected 31.25 ng/ml): 34 ng/mL | observed 37° C. ([2]; expected 31.25 ng/ml): 20 ng/mL | observed −20° C. ([2]; expected 31.25 ng/ml): 37 ng/mL | % difference (4° C. from −20° C.) ([2]; expected 125 ng/ml, 48 hrs): −2% | % difference (37° C. from −20° C.) ([2]; expected 125 ng/ml, 48 hrs): −20% | observed 4° C. ([2]; expected 125 ng/ml): 107 ng/mL | observed 37° C. ([2]; expected 125 ng/ml): 88 ng/mL | observed −20° C. ([2]; expected 125 ng/ml): 110 ng/mL | % difference (4° C. from −20° C.) ([2]; expected 250 ng/ml, 48 hrs): −12% | observed 4° C. ([2]; expected 250 ng/ml): 211 ng/mL | observed 37° C. ([2]; expected 250 ng/ml): >off scale | observed −20° C. ([2]; expected 250 ng/ml): 240 ng/mL | storage stability of spiked samples ([2]; serum pools spiked with CLF, 48 hrs, 4° C. vs 37° C. (reference −20° C.)): can be stored for 48 hrs at 4 °C but should avoid higher temperatures | Peak Area, UV detection (254 nm) ([3]; Aqueous ammonium bicarbonate solution (0.1M), other batch of CLF): 5305.5* | peak area of CLF in aqueous ethanol mixture relative to methanol and aqueous ammonium bicarbonate 0.1 M (fold lower) ([3]; HPLC-UV 254 nm, water/ethanol/sodium hydroxide working solution): around 10 fold | Peak Area, UV detection (254 nm) ([3]; SS CLF-EtOH working solution): 470.9 | Peak Area, UV detection (254 nm) ([3]; SS CLF-MetOH working solution): 4395.1

Reference: US20150212068A1, “Cholyl-L-Lysyl-Fluorescein Assay” (Novassay SA, priority 2012, published 2015)
